Columns and labels:
cathepsin D = cathepsin D (Homo sapiens, UniProt P07339); assay: Inhibition of cathepsin D catalytic activity (Ki); type: biochemical; conditions: pH 4.0, 37° C., read-out: CDK
memapsin 2 = memapsin 2 (Homo sapiens, UniProt P56817); assay: Inhibition of memapsin 2 catalytic activity (Ki); type: biochemical; conditions: memapsin 2, pH 4, 37° C.; read-out: M2K
How it was run: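 Run at 37 °C and pH 4: compound and enzyme pre-incubated 20 min before FS-2 fluorogenic substrate started hydrolysis,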

[1] = test system: Aβ production in Chinese hamster ovary cells that over-express human APP695 with the London and Swedish mutations; assay: Cellular Aβ IC50 determination (Aβ40 sandwich ELISA); conditions: Cricetulus griseus, CHO, 24 h, read-out: Cell, Aβ40, CHO cells over-expressing human APP695 (London and Swedish mutations), 24 h
memapsin 1 = biological target: T1, memapsin 1 (Homo sapiens, UniProt Q9Y5Z0); assay: Inhibition of memapsin 1 catalytic activity (Ki); type: biochemical; conditions: memapsin 1, pH 4.0, 37° C.; read-out: M1K
T1 sequence (Q9Y5Z0 63-518): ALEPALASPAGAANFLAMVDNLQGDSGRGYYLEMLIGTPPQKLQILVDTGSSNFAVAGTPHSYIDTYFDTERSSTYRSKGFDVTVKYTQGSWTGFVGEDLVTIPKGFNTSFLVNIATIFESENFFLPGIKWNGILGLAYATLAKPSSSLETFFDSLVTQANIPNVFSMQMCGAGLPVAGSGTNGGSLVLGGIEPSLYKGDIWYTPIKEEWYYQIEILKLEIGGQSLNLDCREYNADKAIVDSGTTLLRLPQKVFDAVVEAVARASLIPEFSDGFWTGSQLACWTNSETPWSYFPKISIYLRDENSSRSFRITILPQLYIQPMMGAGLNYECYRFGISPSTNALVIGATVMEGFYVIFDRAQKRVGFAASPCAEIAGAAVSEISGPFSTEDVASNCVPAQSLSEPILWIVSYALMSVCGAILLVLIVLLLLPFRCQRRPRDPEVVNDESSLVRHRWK
Method: A substrate peptide NH3-ELDLAVEFWHDR-CO2 (SEQ ID NO.:1) (used for inhibition assay of memapsin 2, memapsin 1, and cathepsin D) was dissolved at 2 mg/ml in DMSO and diluted 1:100 in 0.1 M sodium acetate, pH 4.0 just prior to assay. Inhibitor dissolved in DMSO was diluted into 0.1 M sodium acetate, pH 4.0 (1:100 dilution). A […] aliquot of the inhibitor solution in pH 4 buffer was combined with […] of 0.1 M sodium acetate containing 100-200 nM of memapsin 1, memapsin 2, or cathepsin D. Following a pre-incubation at 37° C., the proteolytic assay was initated by addition of […] of the substrate diluted into pH 4 buffer, and incubation continued at 37° C. Aliquots were removed at time intervals, and combined with an equal volume of MALDI-TOF matrix (α-hydroxycinnamic acid in acetone, 20 mg/ml) and immediately spotted in duplicate onto a stainless-steel MALDI sample plate. MALDI-TOF mass spectrometry was performed on a PE Biosystems Voyager DE instrument at the Molecular Biology Resource Center on campus. The instrument was operated at 25,000 accelerating volts in positive mode with a 150 ns delay. Ions with a mass-to-charge ratio (m/z) were detected in the range of 650-2000 atomic mass units. Data were analyzed by the Voyager Data Explorer module to obtain ion intensity data for mass species of substrates and corresponding products in a given mixture. Relative product formation was calculated as the ratio of signal intensity of the product to the sum of signal intensities of both product and the corresponding substrate. Relative product formed per unit time was obtained from non-linear regression analysis of the data representing the initial 15% formation of product using the model: 1−e^−kT, where k was the relative hydrolytic rate constant and T was time in seconds. Alternatively, relative hydrolytic rates were determined using a fluorogenic cleavage assay (Ermolieff, J. et al., Biochemistry, 39: 12450-12456 (2000)). Initial rates from either method were expressed relative to uninhibited controls and the inhibition constant Ki was determined by a non-linear fit to a tight-binding model of competitive inhibition (Bieth, J., Bayer-Symposium V: Proteinase Inhibitors, pp 463-469, Spinger-Varlag, Berlin (1994)). Results are shown in Table 1 above (M2K, CDK, and M1K columns represent, respectively, the K1 values obtained for memapsin 2, cathepsin D and memapsin 1).

Chain of memapsin 2 (P56817 46-501): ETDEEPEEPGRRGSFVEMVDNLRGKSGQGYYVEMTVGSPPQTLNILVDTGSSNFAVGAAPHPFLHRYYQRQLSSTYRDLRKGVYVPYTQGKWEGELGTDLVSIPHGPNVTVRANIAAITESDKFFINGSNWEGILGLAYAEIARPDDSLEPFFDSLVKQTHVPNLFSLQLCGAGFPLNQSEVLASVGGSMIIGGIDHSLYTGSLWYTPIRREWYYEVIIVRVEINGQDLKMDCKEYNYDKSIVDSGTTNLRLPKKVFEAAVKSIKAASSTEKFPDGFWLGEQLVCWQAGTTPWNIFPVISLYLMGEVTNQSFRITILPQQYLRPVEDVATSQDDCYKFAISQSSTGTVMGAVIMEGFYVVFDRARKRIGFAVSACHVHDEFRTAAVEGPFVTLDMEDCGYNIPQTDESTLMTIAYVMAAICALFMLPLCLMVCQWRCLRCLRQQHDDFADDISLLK
Chain of cathepsin D (P07339 65-412, species assumed): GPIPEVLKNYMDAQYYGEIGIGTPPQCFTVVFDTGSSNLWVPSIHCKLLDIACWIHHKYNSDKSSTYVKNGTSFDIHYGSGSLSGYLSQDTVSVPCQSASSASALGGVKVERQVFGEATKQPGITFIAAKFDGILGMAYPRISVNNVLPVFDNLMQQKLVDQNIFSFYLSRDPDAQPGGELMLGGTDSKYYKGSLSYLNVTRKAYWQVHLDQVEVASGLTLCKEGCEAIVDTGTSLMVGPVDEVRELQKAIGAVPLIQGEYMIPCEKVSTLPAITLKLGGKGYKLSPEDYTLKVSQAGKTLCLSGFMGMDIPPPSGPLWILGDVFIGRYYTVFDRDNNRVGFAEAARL

Row | Compound | Ki (cathepsin D) [nM] | Ki (memapsin 2) [nM] | IC50 [1] [nM] | Ki (memapsin 1) [nM]
1 | COc1cccc(CNCC(O)C(Cc2ccccc2)NC(=O)c2cc(C(=O)NCC3COC4OCCC34)cc(N(C)S(C)(=O)=O)c2)c1 (stereo not drawn) [N1-((hexahydrofuro[2,3-b]furan-3-yl)methyl)-N3-(3-hydroxy-4-(3-methoxybenzylamino)-1-phenylbutan-2-yl)-5-(N-methylmethylsulfonamido)isophthalamide] | 301 to 500 | 301 to 500 | > 5000 | > 501
2 | COc1cccc(CNCC(O)C(Cc2ccccc2)NC(=O)c2cccc(C(=O)NC(C)c3cccnc3)c2)c1 (stereo not drawn) [N1-(3-hydroxy-4-(3-methoxybenzylamino)-1-phenylbutan-2-yl)-N3-(1-(pyridin-3-yl)ethyl)isophthalamide] | > 501 | > 501 | > 5000 | > 501
3 | COc1cccc(C(C)NCC(O)C(Cc2ccccc2)NC(=O)c2cc(C(=O)NC(C)c3ccccc3)cc(N(C)S(C)(=O)=O)c2)c1 (stereo not drawn) [N1-(3-hydroxy-4-(1-(3-methoxyphenyl)ethylamino)-1-phenylbutan-2-yl)-5-(N-methylmethylsulfonamido)-N3-(1-phenylethyl)isophthalamide] | < 300 | < 300 | < 1000 | < 300
4 | Cc1csc(CN(C)C(=O)c2cccc(C(=O)NC(Cc3ccccc3)C(O)CNCc3cncc(C(C)C)c3)c2)n1 (stereo not drawn) [N1-(3-hydroxy-4-((5-isopropylpyridin-3-yl)methylamino)-1-phenylbutan-2-yl)-N3-methyl-N3-((4-methylthiazol-2-yl)methyl)isophthalamide] | < 300 | < 300 | < 1000 | 301 to 500
5 | COc1cccc(CNCC(O)C(Cc2ccccc2)NC(=O)c2cc(C(=O)NCc3nc(C)oc3C)cc(N(C)S(C)(=O)=O)c2)c1 (stereo not drawn) [N1-((2,5-dimethyloxazol-4-yl)methyl)-N3-(3-hydroxy-4-(3-methoxybenzylamino)-1-phenylbutan-2-yl)-5-(N-methylmethylsulfonamido)isophthalamide] | > 501 | > 501 | 1000 to 5000 | > 501
6 | COc1cccc(CNCC(O)C(Cc2ccccc2)NC(=O)c2cccc(C(=O)N(C)Cc3cc(C)no3)c2)c1 (stereo not drawn) [N1-(3-hydroxy-4-(3-methoxybenzylamino)-1-phenylbutan-2-yl)-N3-methyl-N3-((3-methylisoxazol-5-yl)methyl)isophthalamide] | < 300 | > 501 | > 5000 | > 501
7 | Cc1csc(CN(C(=O)c2cccc(C(=O)NC(Cc3ccccc3)C(O)CNCc3cncc(C(C)C)c3)c2)C2CC2)n1 (stereo not drawn) [N1-cyclopropyl-N3-(3-hydroxy-4-((5-isopropylpyridin-3-yl)methylamino)-1-phenylbutan-2-yl)-N1-((4-methylthiazol-2-yl)methyl)isophthalamide] | < 300 | < 300 | < 1000 | < 300
8 | COc1cccc(CNCC(O)C(Cc2ccccc2)NC(=O)c2cc(C(=O)NCc3ccccc3)cc(N(C)S(C)(=O)=O)c2)c1 (stereo not drawn) [N1-benzyl-N3-(3-hydroxy-4-(3-methoxybenzylamino)-1-phenylbutan-2-yl)-5-(N-methylmethylsulfonamido)isophthalamide] | < 300 | < 300 | < 1000 | > 501
9 | CCC(NCC(O)C(Cc1ccccc1)NC(=O)c1cccc(C(=O)N(C)Cc2nc(C)cs2)c1)c1ccccc1 (stereo not drawn) [N1-(3-hydroxy-1-phenyl-4-(1-phenylpropylamino)butan-2-yl)-N3-methyl-N3-((4-methylthiazol-2-yl)methyl)isophthalamide] | < 300 | > 501 | 1000 to 5000 | > 501

Other lines, results leading:

Row | Ki (cathepsin D) [nM] | Ki (memapsin 2) [nM] | IC50 [1] [nM] | Ki (memapsin 1) [nM] | Compound
10 | < 300 | < 300 | < 1000 | > 501 | CC(NC(=O)c1cc(C(=O)NC(Cc2ccccc2)C(O)CNCc2cc(F)cc(F)c2)cc(N(C)S(C)(=O)=O)c1)c1ccccc1 (stereo not drawn) [N1-(4-(3,5-difluorobenzylamino)-3-hydroxy-1-phenylbutan-2-yl)-5-(N-methylmethylsulfonamido)-N3-(1-phenylethyl)isophthalamide]
11 | < 300 | < 300 | < 1000 | < 300 | CC(NC(=O)c1cc(C(=O)NC(Cc2ccccc2)C(O)CNCc2ccccc2O)cc(N(C)S(C)(=O)=O)c1)c1ccccc1 (stereo not drawn) [N1-(3-hydroxy-4-(2-hydroxybenzylamino)-1-phenylbutan-2-yl)-5-(N-methylmethylsulfonamido)-N3-(1-phenylethyl)isophthalamide]
12 | < 300 | < 300 | < 1000 | < 300 | CC(NCC(O)C(Cc1ccccc1)NC(=O)c1cc(C(=O)NC(C)c2ccccc2)cc(N(C)S(C)(=O)=O)c1)c1ccc(F)cc1 (stereo not drawn) [N1-(4-(1-(4-fluorophenyl)ethylamino)-3-hydroxy-1-phenylbutan-2-yl)-5-(N-methylmethylsulfonamido)-N3-(1-phenylethyl)isophthalamide]
13 | > 501 | 301 to 500 | > 5000 | > 501 | CC(NC(=O)c1cc(C(=O)NC(Cc2ccccc2)C(O)CNN(C)c2ccccc2)cc(N(C)S(C)(=O)=O)c1)c1ccccc1 (stereo not drawn) [N1-(3-hydroxy-4-(2-methyl-2-phenylhydrazinyl)-1-phenylbutan-2-yl)-5-(N-methylmethylsulfonamido)-N3-(1-phenylethyl)isophthalamide]
14 | > 501 | 301 to 500 | < 1000 | 301 to 500 | Cc1cccc(CNCC(O)C(Cc2ccccc2)NC(=O)c2cc(C(=O)NC(C)c3ccccc3)cc(N(C)S(C)(=O)=O)c2)n1 (stereo not drawn) [N1-(3-hydroxy-4-((6-methylpyridin-2-yl)methylamino)-1-phenylbutan-2-yl)-5-(N-methylmethylsulfonamido)-N3-(1-phenylethyl)isophthalamide]
15 | < 300 | < 300 | < 1000 | < 300 | COc1cccc(CNCC(O)C(Cc2ccccc2)NC(=O)c2cc(C(=O)NC(C)c3ccc(F)cc3)cc(N(C)S(C)(=O)=O)c2)c1 (stereo not drawn) [N1-(1-(4-fluorophenyl)ethyl)-N3-(3-hydroxy-4-(3-methoxybenzylamino)-1-phenylbutan-2-yl)-5-(N-methylmethylsulfonamido)isophthalamide]
16 | 301 to 500 | < 300 | < 1000 | > 501 | Cc1csc(CNCC(O)C(Cc2ccccc2)NC(=O)c2cc(C(=O)NC(C)c3ccccc3)cc(N(C)S(C)(=O)=O)c2)n1 (stereo not drawn) [N1-(3-hydroxy-4-((4-methylthiazol-2-yl)methylamino)-1-phenylbutan-2-yl)-5-(N-methylmethylsulfonamido)-N3-(1-phenylethyl)isophthalamide]
17 | < 300 | < 300 | < 1000 | < 300 | CCC(NC(=O)c1cc(C(=O)NC(Cc2ccccc2)C(O)CNCc2cccc(OC)c2)cc(N(C)S(C)(=O)=O)c1)c1ccccc1 (stereo not drawn) [N1-(3-hydroxy-4-(3-methoxybenzylamino)-1-phenylbutan-2-yl)-5-(N-methylmethylsulfonamido)-N3-(1-phenylpropyl)isophthalamide]
18 | 301 to 500 | < 300 | < 1000 | < 300 | CC(=O)Nc1cccc(CNCC(O)C(Cc2ccccc2)NC(=O)c2cc(C(=O)NC(C)c3ccccc3)cc(N(C)S(C)(=O)=O)c2)c1 (stereo not drawn) [N1-(4-(3-acetamidobenzylamino)-3-hydroxy-1-phenylbutan-2-yl)-5-(N-methylmethylsulfonamido)-N3-(1-phenylethyl)isophthalamide]
